Reference: patent US9776990B2, “Isoindolone derivatives” (AbbVie Inc., priority 2012, dated 2017)

How the values were obtained:
[1] = biological target: BRD4 (BDI_K57-E168) (Homo sapiens (Human), UniProt O60885); assay: TR-FRET bromodomain binding assay, BRD4 first bromodomain; details: His-tagged BD1, 100 nM Alexa647 probe
Method: (§1) A time-resolved fluorescence resonance energy transfer (TR-FRET) assay was used to determine the affinities of compounds of the Examples listed in Table 1 for each bromodomain of BRD4. His-tagged first (BD1: amino acids K57-E168) and second (BD2: amino acids E352-E168) bromodomains of BRD4 were expressed and purified. An Alexa647-labeled BET-inhibitor was used as the fluorescent probe in the assay.
(§2) Compound dilution series were prepared in DMSO via a 3-fold serial dilution from 2.5 mM to 42 nM. Compounds were then diluted 6:100 in assay buffer (20 mM Sodium Phosphate, pH 6.0, 50 mM NaCl, 1 mM EDTA, 0.01% Triton X-100, 1 mM DTT) to yield 3× working solutions. Six microliters (μL) of the working solution was then transferred to white, low-volume assay plates (Costar #3673). A 1.5× assay mixture containing His-tagged bromodomain, Europium-conjugated anti-His antibody (Invitrogen PV5596) and the Alexa-647-conjugated probe molecule was also prepared. Twelve μL of this solution were added to the assay plate to reach a final volume of 18 μL. The final concentration of 1× assay buffer contains 2% DMSO, 50 μM−0.85 nM compound, 8 nM bromodomain, 1 nM antibody and 100 or 30 nM probe (for BDI or BDII, respectively). After a one-hour incubation at room temperature, TR-FRET ratios were determined using an Envision multilabel plate reader (Ex 340, Em 495/520).
(§3) TR-FRET data were normalized to the means of 24 no-compound controls (“high”) and 8 controls containing 1 μM un-labeled probe (“low”). Percent inhibition was plotted as a function of compound concentration and the data were fit with the 4 parameter logistic equation to obtain IC50s Inhibition constants (Ki) were calculated from the IC50s, probe Kd and probe concentration. Typical Z′ values were between 0.65 and 0.75. The minimum significant ratio was determined to evaluate assay reproducibility (Eastwood et al., (2006) J Biomol Screen, 11: 253-261). The MSR was determined to be 2.03 for BDI and 1.93 for BDII, and a moving MSR (last six run MSR overtime) for both BDI and BDII was typically <3.

[2] = biological target: BRD4 (BDII_E352-M457) (Homo sapiens (Human), UniProt O60885); assay: TR-FRET bromodomain binding assay, BRD4 second bromodomain; details: His-tagged BD2, 30 nM Alexa647 probe
Method: as §1, §2, §3

| Molecule | Ki [1] [µM] | Ki [2] [µM] |
| --- | --- | --- |
| 3-methyl-6-(2-methylpropyl)-1-(2-phenoxyphenyl)-2,5,6,7-tetrahydro-4H-isoindol-4-one [Example 68] | 3.62 | 22.2 |
| Cc1[nH]c(-c2ccccc2Oc2ccccc2)c2c1C(=O)CCC2 [Example 2, 3-methyl-1-(2-phenoxyphenyl)-2,5,6,7-tetrahydro-4H-isoindol-4-one] | 0.255 | 0.504 |
| Cc1[nH]c(-c2ccccc2N)c2c1C(=O)CCC2 [Example 3, 1-(2-aminophenyl)-3-methyl-2,5,6,7-tetrahydro-4H-isoindol-4-one] | 3.73 | 15 |
| Cc1ccc(-c2[nH]c(C)c3c2CCCC3=O)cc1 [Example 4, 3-methyl-1-(4-methylphenyl)-2,5,6,7-tetrahydro-4H-isoindol-4-one] | 2.49 | 15.9 |
| COc1ccccc1-c1[nH]c(C)c2c1CCCC2=O [Example 6, 1-(2-methoxyphenyl)-3-methyl-2,5,6,7-tetrahydro-4H-isoindol-4-one] | 2.7 | 9.97 |
| COc1ccc(-c2[nH]c(C)c3c2CCCC3=O)cc1 [Example 11, 1-(4-methoxyphenyl)-3-methyl-2,5,6,7-tetrahydro-4H-isoindol-4-one] | 1.88 | 5.46 |
| Cc1ccc(-c2[nH]c(C)c3c2CCCC3=O)cc1C [Example 12, 1-(3,4-dimethylphenyl)-3-methyl-2,5,6,7-tetrahydro-4H-isoindol-4-one] | 2.86 | 10.4 |
| Cc1[nH]c(-c2ccc(Cl)cc2)c2c1C(=O)CCC2 [Example 13, 1-(4-chlorophenyl)-3-methyl-2,5,6,7-tetrahydro-4H-isoindol-4-one] | 7.29 | 22.2 |
| Cc1[nH]c(-c2cccc(OCc3ccccc3)c2)c2c1C(=O)CCC2 [Example 14, 1-[3-(benzyloxy)phenyl]-3-methyl-2,5,6,7-tetrahydro-4H-isoindol-4-one] | 9.06 | 22.2 |
| Cc1[nH]c(-c2ccccc2Cl)c2c1C(=O)CCC2 [Example 15, 1-(2-chlorophenyl)-3-methyl-2,5,6,7-tetrahydro-4H-isoindol-4-one] | 1.14 | 22.2 |
| Cc1[nH]c(-c2ccc3c(c2)OCO3)c2c1C(=O)CCC2 [Example 16, 1-(1,3-benzodioxol-5-yl)-3-methyl-2,5,6,7-tetrahydro-4H-isoindol-4-one] | 3.77 | 8.42 |
| Cc1cc(C)cc(-c2[nH]c(C)c3c2CCCC3=O)c1 [Example 17, 1-(3,5-dimethylphenyl)-3-methyl-2,5,6,7-tetrahydro-4H-isoindol-4-one] | 5.51 | 17.5 |
| COc1cccc(-c2[nH]c(C)c3c2CCCC3=O)c1 [Example 20, 1-(3-methoxyphenyl)-3-methyl-2,5,6,7-tetrahydro-4H-isoindol-4-one] | 1.77 | 4.49 |
| Cc1[nH]c(-c2cccc3[nH]cnc23)c2c1C(=O)CCC2 [Example 21, 1-(1H-benzimidazol-4-yl)-3-methyl-2,5,6,7-tetrahydro-4H-isoindol-4-one] | 1.86 | 5.92 |
| Cc1[nH]c(-c2cccc3cc[nH]c23)c2c1C(=O)CCC2 [Example 22, 1-(1H-indol-7-yl)-3-methyl-2,5,6,7-tetrahydro-4H-isoindol-4-one] | 2.47 | 8.21 |
| Cc1[nH]c(-c2ccccc2COc2cccc(C(F)(F)F)c2)c2c1C(=O)CCC2 [Example 23, 3-methyl-1-(2-{[3-(trifluoromethyl)phenoxy]methyl}phenyl)-2,5,6,7-tetrahydro-4H-isoindol-4-one] | 9.09 | 8.92 |
| Cc1[nH]c(-c2ccccc2COc2ccccc2)c2c1C(=O)CCC2 [Example 24, 3-methyl-1-[2-(phenoxymethyl)phenyl]-2,5,6,7-tetrahydro-4H-isoindol-4-one] | 1.2 | 2.3 |
| Cc1ccccc1OCc1ccccc1-c1[nH]c(C)c2c1CCCC2=O [Example 25, 3-methyl-1-{2-[(2-methylphenoxy)methyl]phenyl}-2,5,6,7-tetrahydro-4H-isoindol-4-one] | 4.24 | 15.1 |
